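How tested: cells in 96-well plates exposed to compound for 48 hours at five concentrations. GI50: concentration for 50% inhibition of growth.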 The source made the active and inactive calls. Cut-off read from the data, not from the text of the source: active = GI50 up to about 1.1 µM and inactive = higher.
How the values were obtained:
Assay in all cases: NCI-60 cell line screen, 48 h
LOX IMVI = system: LOX IMVI
K562 = system: K562
Hs-578T = system: Hs-578T
SF-295 = system: SF-295
UACC-257 = system: UACC-257
MOLT-4 = system: MOLT-4
NCI-H522 = system: NCI-H522
SNB-19 = system: SNB-19
OVCAR-3 = system: OVCAR-3
SK-MEL-28 = system: SK-MEL-28
HCT-116 = system: HCT-116
RPMI-8226 = system: RPMI-8226
CAKI-1 = system: CAKI-1
EKVX = system: EKVX
HL-60 = system: HL-60
SK-MEL-2 = system: SK-MEL-2
HOP-62 = system: HOP-62
A498 = system: A498
CCRF-CEM = system: CCRF-CEM
HCC 2998 = system: HCC 2998

SMILES | GI50 (LOX IMVI) | GI50 (K562) | GI50 (Hs-578T) | GI50 (SF-295) | GI50 (UACC-257) | GI50 (MOLT-4) | GI50 (NCI-H522) | GI50 (SNB-19) | GI50 (OVCAR-3) | GI50 (SK-MEL-28) | GI50 (HCT-116) | GI50 (RPMI-8226) | GI50 (CAKI-1) | GI50 (EKVX) | GI50 (HL-60) | GI50 (SK-MEL-2) | GI50 (HOP-62) | GI50 (A498) | GI50 (CCRF-CEM) | GI50 (HCC 2998)
CCc1nc(N)nc(N)c1-c1ccc(Cl)c([N+]#N)c1 | 46.5 µM (inactive) | 6.32 µM (inactive) | 46.6 µM (inactive) | 39 µM (inactive) | > 100 µM (inactive) | 23.1 µM (inactive) | 38.7 µM (inactive) | > 100 µM (inactive) | 44.5 µM (inactive) | > 100 µM (inactive) | 41.8 µM (inactive) | 0.564 µM (active) | 58.3 µM (inactive) | > 100 µM (inactive) | 40.8 µM (inactive) | > 100 µM (inactive) | 82 µM (inactive) |  |  | 
COC(=O)C1c2c(c3ccccc3n2C(=O)OC)CCN2CCC1C(S(=O)(=O)c1ccccc1)C2=O (stereo unspecified) | > 100 µM (inactive) | > 100 µM (inactive) | > 100 µM (inactive) | > 100 µM (inactive) | > 100 µM (inactive) | 40.5 µM (inactive) | 89.3 µM (inactive) | 94.6 µM (inactive) | > 100 µM (inactive) | > 100 µM (inactive) | > 100 µM (inactive) | 30.6 µM (inactive) | > 100 µM (inactive) | > 100 µM (inactive) | 90.6 µM (inactive) | > 100 µM (inactive) | 70.3 µM (inactive) | > 100 µM (inactive) | > 100 µM (inactive) | 
COc1ccc(/C=C/c2cc(OC)c(OCc3ccccc3)c(OC)c2)cc1 |  | > 100 µM (inactive) |  |  | 99.1 µM (inactive) | 29 µM (inactive) | > 100 µM (inactive) | > 100 µM (inactive) | > 100 µM (inactive) | 56.6 µM (inactive) | > 100 µM (inactive) | 57.9 µM (inactive) | > 100 µM (inactive) | > 100 µM (inactive) |  | > 100 µM (inactive) | > 100 µM (inactive) | > 100 µM (inactive) | > 100 µM (inactive) | > 100 µM (inactive)
CNc1cc(Cl)ccc1C(=O)N1CCC[C@H]1CO | > 100 µM (inactive) |  | > 100 µM (inactive) | > 100 µM (inactive) | > 100 µM (inactive) | > 100 µM (inactive) | > 100 µM (inactive) | > 100 µM (inactive) |  | > 100 µM (inactive) | > 100 µM (inactive) |  | > 100 µM (inactive) | > 100 µM (inactive) | 81.7 µM (inactive) | > 100 µM (inactive) | > 100 µM (inactive) | > 100 µM (inactive) | > 100 µM (inactive) | 
C/C(CCn1[nH]c(=O)ccc1=O)=N\NC(=O)C(=O)NN | > 100 µM (inactive) | > 100 µM (inactive) |  | > 100 µM (inactive) | > 100 µM (inactive) | > 100 µM (inactive) | > 100 µM (inactive) | > 100 µM (inactive) | > 100 µM (inactive) | > 100 µM (inactive) |  | > 100 µM (inactive) | > 100 µM (inactive) | > 100 µM (inactive) | > 100 µM (inactive) | > 100 µM (inactive) | > 100 µM (inactive) | 43.8 µM (inactive) | > 100 µM (inactive) | > 100 µM (inactive)
Nc1nc(SCc2ccccc2Cl)c2[nH]cnc2n1 | 44.2 µM (inactive) | 50.2 µM (inactive) |  | 58.6 µM (inactive) | 56 µM (inactive) | 34.6 µM (inactive) | 56.4 µM (inactive) | 70.1 µM (inactive) | 97.7 µM (inactive) | 68.9 µM (inactive) | 59.8 µM (inactive) | > 100 µM (inactive) |  | 85.9 µM (inactive) | 36.4 µM (inactive) | 80.4 µM (inactive) | 25.5 µM (inactive) | 15 µM (inactive) | 54.5 µM (inactive) | > 100 µM (inactive)
COC(=O)c1ccccc1NC(=O)C(=O)CC(=O)CC(c1ccccc1)c1c(O)c2ccccc2oc1=O (stereo unspecified) |  | > 10 µM (inactive) |  | > 100 µM (inactive) | > 100 µM (inactive) | > 100 µM (inactive) | > 100 µM (inactive) | > 100 µM (inactive) | > 100 µM (inactive) | > 100 µM (inactive) | > 100 µM (inactive) | > 100 µM (inactive) | > 100 µM (inactive) | > 100 µM (inactive) | > 100 µM (inactive) | > 100 µM (inactive) | > 100 µM (inactive) | 47.4 µM (inactive) | > 100 µM (inactive) | > 100 µM (inactive)
O=[N+]([O-])c1ccc(COc2cccc3cccnc23)cc1 | 11.7 µM (inactive) | 11.3 µM (inactive) |  | 26.6 µM (inactive) | 20.2 µM (inactive) | 4.98 µM (inactive) | 4.53 µM (inactive) | 27.4 µM (inactive) | 5.94 µM (inactive) | 14.8 µM (inactive) | 25.2 µM (inactive) | 13 µM (inactive) | 30.3 µM (inactive) | 18.9 µM (inactive) | 5.69 µM (inactive) | 14.6 µM (inactive) | 30 µM (inactive) | 34.8 µM (inactive) | 3.94 µM (inactive) | 22.3 µM (inactive)
NNC1=N/C(=C\c2ccccc2O)C(=O)N1 | 24.5 µM (inactive) | 28.1 µM (inactive) | > 100 µM (inactive) | 36 µM (inactive) | 49.2 µM (inactive) | 21.5 µM (inactive) | 35.3 µM (inactive) | 73.3 µM (inactive) | 35.1 µM (inactive) | 60.8 µM (inactive) | 34.4 µM (inactive) | 24 µM (inactive) | 60.3 µM (inactive) | 50.5 µM (inactive) | 14.6 µM (inactive) | 63.8 µM (inactive) | 48.5 µM (inactive) | > 100 µM (inactive) | 9.12 µM (inactive) | 
CC1(C)OC2OC(COC(=O)C=[N+]=[N-])C3OC(C)(C)OC3C2O1 (stereo unspecified) | > 100 µM (inactive) | > 100 µM (inactive) |  | > 100 µM (inactive) | > 100 µM (inactive) | > 10 µM (inactive) | > 100 µM (inactive) | > 100 µM (inactive) | > 100 µM (inactive) | > 100 µM (inactive) | > 100 µM (inactive) | > 100 µM (inactive) | > 100 µM (inactive) | > 100 µM (inactive) | > 100 µM (inactive) | > 100 µM (inactive) | > 100 µM (inactive) | > 100 µM (inactive) | > 100 µM (inactive) | > 100 µM (inactive)
O=[N+]([O-])c1ccc(-c2nc3cc(Cl)ccc3[nH]2)cc1 | 46.2 µM (inactive) |  | > 100 µM (inactive) | 39.2 µM (inactive) | 76 µM (inactive) | 64 µM (inactive) | 14.4 µM (inactive) | 78.5 µM (inactive) | 45.1 µM (inactive) | > 100 µM (inactive) | 49.2 µM (inactive) | 25.5 µM (inactive) | 62.7 µM (inactive) | 69.5 µM (inactive) |  |  | > 100 µM (inactive) |  |  | 
CNC(=O)CCNC(=O)CCC(=O)N(C)C |  | > 100 µM (inactive) |  | > 100 µM (inactive) |  | > 100 µM (inactive) | 2.77 µM (inactive) | > 100 µM (inactive) | > 100 µM (inactive) | > 100 µM (inactive) | > 100 µM (inactive) | > 100 µM (inactive) | > 100 µM (inactive) |  |  | > 100 µM (inactive) | > 100 µM (inactive) | > 100 µM (inactive) |  | > 100 µM (inactive)
CSc1ccc2c(cc1=O)[C@@H](NC(C)=O)CCc1cc(O)c(O)c(O)c1-2 | 23 µM (inactive) |  |  | 13.3 µM (inactive) | 37.2 µM (inactive) | 13.2 µM (inactive) | 16.2 µM (inactive) | 29 µM (inactive) | 18.6 µM (inactive) | > 100 µM (inactive) | 30.6 µM (inactive) | 12.9 µM (inactive) | 48.4 µM (inactive) | 31.9 µM (inactive) | 37.8 µM (inactive) | 32.9 µM (inactive) | 18 µM (inactive) | 23.3 µM (inactive) | 4.98 µM (inactive) | 23 µM (inactive)
N#CC(C#N)=C1/C(=C/C=C/C=C/C=C/c2ccc(N3CCCCC3)s2)S(=O)(=O)c2ccccc21 | > 100 µM (inactive) | > 100 µM (inactive) |  | > 100 µM (inactive) | > 100 µM (inactive) | 14.9 µM (inactive) | 22.1 µM (inactive) | 45.3 µM (inactive) | > 100 µM (inactive) | > 100 µM (inactive) | > 100 µM (inactive) | 36.4 µM (inactive) | > 100 µM (inactive) | > 100 µM (inactive) | > 100 µM (inactive) | > 100 µM (inactive) | 33.7 µM (inactive) | > 100 µM (inactive) | 71.6 µM (inactive) | > 100 µM (inactive)
Cc1c(/C=N/N(C)C)oc2c1cc(O)c1ncccc12 | 4.5 µM (inactive) | 3.86 µM (inactive) |  | 9.91 µM (inactive) | 5.36 µM (inactive) | 2.59 µM (inactive) | 2.38 µM (inactive) | 14.1 µM (inactive) | 2.66 µM (inactive) | 22.5 µM (inactive) | 2.99 µM (inactive) | 5.05 µM (inactive) | 4.03 µM (inactive) | 2.11 µM (inactive) | 2.13 µM (inactive) | 12.6 µM (inactive) | 7.35 µM (inactive) | 25.8 µM (inactive) | 1.27 µM (inactive) | 14 µM (inactive)
CC(C)=CCC1=C(OCC(=O)O)C(=O)c2ccccc2C1=O | 32.6 µM (inactive) | 33 µM (inactive) | 22.2 µM (inactive) | 11.9 µM (inactive) | 29.1 µM (inactive) | 15.9 µM (inactive) | 23.6 µM (inactive) | 27.9 µM (inactive) |  | 35 µM (inactive) | 22.6 µM (inactive) | 24.1 µM (inactive) | 52.5 µM (inactive) | 37.1 µM (inactive) | 14.5 µM (inactive) | 25.7 µM (inactive) | 40.9 µM (inactive) | 76.7 µM (inactive) | 23.9 µM (inactive) | 
